{
  "source": "patent US20250381179A1",
  "about": "“CHROMAN-BASED COMPOUNDS FOR TREATING CANCER” (priority 2024, published 2025)",
  "assay": "Phase 1 study: safety and tolerability (TEAEs, NCI CTCAE v5.0)",
  "protocol": "The study employed an open-label, 3+3 design, with the option of adding backfill patients to each cohort cleared and deemed safe. […] Tumor responses were assessed every 2 cycles using RECIST v1.1 criteria. […] The study also involves an ongoing dose escalation study where participants receive 100 mg, 200 mg, 300 mg, 400 mg, and 600 mg once daily (QD) dose levels.\nSafety was assessed through the analysis of the reported incidence of treatment-emergent AEs. Treatment-emergent AEs are those with an onset on or after the initiation of therapy and will be graded according to NCI CTCAE Version 5.0. Other safety endpoints, including laboratory results, vital signs, and ECG findings, were summarized for all patients in the Safety set.",
  "data": [
    {"compound": "O=C1CC[C@H](N2Cc3cc(N4CCN(CC5CCN(c6ccc([C@@H]7c8ccc(O)cc8OC[C@@H]7c7ccccc7)cc6F)CC5)CC4)ccc3C2=O)C(=O)N1", "note": "[compound (1-g), (S)-3-(5-(4-((1-(2-fluoro-4-((3S,4R)-7-hydroxy-3-phenylchroman-4-yl)phenyl)piperidin-4-yl)methyl)piperazin-1-yl)-1-oxoisoindolin-2-yl)piperidine-2,6-dione]", "values": [
      {"measurement": "TEAE: Nausea", "setting": "400 mg QD (N = 6)", "value": "1 (16.7) n (%)"},
      {"measurement": "TEAE: Neutrophil Count Decreased", "setting": "400 mg QD (N = 6)", "value": "2 (33.3) n (%)"},
      {"measurement": "TEAE: Oedema Peripheral", "setting": "400 mg QD (N = 6)", "value": "1 (16.7) n (%)"},
      {"measurement": "TEAE: Ophthalmic Migraine", "setting": "400 mg QD (N = 6)", "value": "0 n (%)"},
      {"measurement": "TEAE: Oral Pain", "setting": "400 mg QD (N = 6)", "value": "0 n (%)"},
      {"measurement": "TEAE: Pain In Extremity", "setting": "400 mg QD (N = 6)", "value": "0 n (%)"},
      {"measurement": "TEAE: Pharyngitis", "setting": "400 mg QD (N = 6)", "value": "0 n (%)"},
      {"measurement": "TEAE: Platelet Count Decreased", "setting": "400 mg QD (N = 6)", "value": "1 (16.7) n (%)"},
      {"measurement": "TEAE: Pleural Effusion", "setting": "400 mg QD (N = 6)", "value": "0 n (%)"},
      {"measurement": "TEAE: Pneumonia", "setting": "400 mg QD (N = 6)", "value": "0 n (%)"},
      {"measurement": "TEAE: Productive Cough", "setting": "400 mg QD (N = 6)", "value": "0 n (%)"},
      {"measurement": "TEAE: Rash Maculo-Papular", "setting": "400 mg QD (N = 6)", "value": "0 n (%)"},
      {"measurement": "TEAE: Rhinitis Allergic", "setting": "400 mg QD (N = 6)", "value": "0 n (%)"},
      {"measurement": "TEAE: Rib Fracture", "setting": "400 mg QD (N = 6)", "value": "0 n (%)"},
      {"measurement": "TEAE: Seizure", "setting": "400 mg QD (N = 6)", "value": "0 n (%)"},
      {"measurement": "TEAE: Sepsis", "setting": "400 mg QD (N = 6)", "value": "0 n (%)"},
      {"measurement": "TEAE: Tremor", "setting": "400 mg QD (N = 6)", "value": "0 n (%)"},
      {"measurement": "TEAE: Upper Respiratory Tract Infection", "setting": "400 mg QD (N = 6)", "value": "0 n (%)"},
      {"measurement": "TEAE: Urinary Tract Infection", "setting": "400 mg QD (N = 6)", "value": "0 n (%)"},
      {"measurement": "TEAE: Vaginal Haemorrhage", "setting": "400 mg QD (N = 6)", "value": "0 n (%)"},
      {"measurement": "TEAE: Vomiting", "setting": "400 mg QD (N = 6)", "value": "0 n (%)"},
      {"measurement": "related TEAE: Alopecia", "setting": "400 mg QD (N = 6)", "value": "1 (16.7) n (%)"},
      {"measurement": "related TEAE: Arthralgia", "setting": "400 mg QD (N = 6)", "value": "0 n (%)"},
      {"measurement": "related TEAE: Constipation", "setting": "400 mg QD (N = 6)", "value": "1 (16.7) n (%)"},
      {"measurement": "related TEAE: Diarrhea", "setting": "400 mg QD (N = 6)", "value": "1 (16.7) n (%)"},
      {"measurement": "related TEAE: Dysgeusia", "setting": "400 mg QD (N = 6)", "value": "1 (16.7) n (%)"},
      {"measurement": "related TEAE: Eructation", "setting": "400 mg QD (N = 6)", "value": "1 (16.7) n (%)"},
      {"measurement": "related TEAE: Fatigue", "setting": "400 mg QD (N = 6)", "value": "0 n (%)"},
      {"measurement": "related TEAE: Flatulence", "setting": "400 mg QD (N = 6)", "value": "1 (16.7) n (%)"},
      {"measurement": "related TEAE: Hot Flush", "setting": "400 mg QD (N = 6)", "value": "0 n (%)"},
      {"measurement": "related TEAE: Hyperhidrosis", "setting": "400 mg QD (N = 6)", "value": "0 n (%)"},
      {"measurement": "related TEAE: Nail Disorder", "setting": "400 mg QD (N = 6)", "value": "1 (16.7) n (%)"},
      {"measurement": "related TEAE: Nausea", "setting": "400 mg QD (N = 6)", "value": "1 (16.7) n (%)"},
      {"measurement": "related TEAE: Neutrophil Count Decreased", "setting": "400 mg QD (N = 6)", "value": "2 (33.3) n (%)"},
      {"measurement": "related TEAE: Platelet Count Decreased", "setting": "400 mg QD (N = 6)", "value": "1 (16.7) n (%)"},
      {"measurement": "related TEAE: Tremor", "setting": "400 mg QD (N = 6)", "value": "0 n (%)"},
      {"measurement": "related TEAE: Vomiting", "setting": "400 mg QD (N = 6)", "value": "0 n (%)"},
      {"measurement": "Patients with Any Compound (1-g) related TEAE", "setting": "600 mg QD (N = 4)", "value": "2 (50.0) n (%)"},
      {"measurement": "Patients with Any TEAE", "setting": "600 mg QD (N = 4)", "value": "2 (50.0) n (%)"},
      {"measurement": "TEAE: Abdominal Distension", "setting": "600 mg QD (N = 4)", "value": "0 n (%)"},
      {"measurement": "TEAE: Abdominal Pain", "setting": "600 mg QD (N = 4)", "value": "0 n (%)"},
      {"measurement": "TEAE: Acute Kidney Injury", "setting": "600 mg QD (N = 4)", "value": "0 n (%)"},
      {"measurement": "TEAE: Adrenal Insufficiency", "setting": "600 mg QD (N = 4)", "value": "0 n (%)"},
      {"measurement": "TEAE: Alopecia", "setting": "600 mg QD (N = 4)", "value": "0 n (%)"},
      {"measurement": "TEAE: Anaemia", "setting": "600 mg QD (N = 4)", "value": "0 n (%)"},
      {"measurement": "TEAE: Anxiety", "setting": "600 mg QD (N = 4)", "value": "0 n (%)"},
      {"measurement": "TEAE: Arthralgia", "setting": "600 mg QD (N = 4)", "value": "0 n (%)"},
      {"measurement": "TEAE: Axillary Vein Thrombosis", "setting": "600 mg QD (N = 4)", "value": "0 n (%)"},
      {"measurement": "TEAE: Back Pain", "setting": "600 mg QD (N = 4)", "value": "1 (25.0) n (%)"},
      {"measurement": "TEAE: Basal Cell Carcinoma", "setting": "600 mg QD (N = 4)", "value": "0 n (%)"},
      {"measurement": "TEAE: Breast Pain", "setting": "600 mg QD (N = 4)", "value": "0 n (%)"},
      {"measurement": "TEAE: Confusional State", "setting": "600 mg QD (N = 4)", "value": "0 n (%)"},
      {"measurement": "TEAE: Constipation", "setting": "600 mg QD (N = 4)", "value": "1 (25.0) n (%)"},
      {"measurement": "TEAE: Cough", "setting": "600 mg QD (N = 4)", "value": "0 n (%)"},
      {"measurement": "TEAE: Covid-19 Pneumonia", "setting": "600 mg QD (N = 4)", "value": "0 n (%)"},
      {"measurement": "TEAE: Dehydration", "setting": "600 mg QD (N = 4)", "value": "0 n (%)"},
      {"measurement": "TEAE: Diarrhoea", "setting": "600 mg QD (N = 4)", "value": "0 n (%)"},
      {"measurement": "TEAE: Dizziness", "setting": "600 mg QD (N = 4)", "value": "0 n (%)"},
      {"measurement": "TEAE: Dysgeusia", "setting": "600 mg QD (N = 4)", "value": "0 n (%)"},
      {"measurement": "TEAE: Dyspepsia", "setting": "600 mg QD (N = 4)", "value": "0 n (%)"},
      {"measurement": "TEAE: Dyspnoea", "setting": "600 mg QD (N = 4)", "value": "0 n (%)"},
      {"measurement": "TEAE: Dysuria", "setting": "600 mg QD (N = 4)", "value": "0 n (%)"},
      {"measurement": "TEAE: Eructation", "setting": "600 mg QD (N = 4)", "value": "0 n (%)"},
      {"measurement": "TEAE: Fall", "setting": "600 mg QD (N = 4)", "value": "0 n (%)"},
      {"measurement": "TEAE: Fatigue", "setting": "600 mg QD (N = 4)", "value": "0 n (%)"},
      {"measurement": "TEAE: Flatulence", "setting": "600 mg QD (N = 4)", "value": "0 n (%)"},
      {"measurement": "TEAE: Fracture", "setting": "600 mg QD (N = 4)", "value": "0 n (%)"},
      {"measurement": "TEAE: Fungal Infection", "setting": "600 mg QD (N = 4)", "value": "0 n (%)"},
      {"measurement": "TEAE: Haematoma", "setting": "600 mg QD (N = 4)", "value": "0 n (%)"},
      {"measurement": "TEAE: Hot Flush", "setting": "600 mg QD (N = 4)", "value": "1 (25.0) n (%)"},
      {"measurement": "TEAE: Hyperglycaemia", "setting": "600 mg QD (N = 4)", "value": "0 n (%)"},
      {"measurement": "TEAE: Hyperhidrosis", "setting": "600 mg QD (N = 4)", "value": "1 (25.0) n (%)"},
      {"measurement": "TEAE: Hypokalaemia", "setting": "600 mg QD (N = 4)", "value": "0 n (%)"},
      {"measurement": "TEAE: Hypotension", "setting": "600 mg QD (N = 4)", "value": "0 n (%)"}
    ]}
  ]
}
